This experiment addresses T1, 11-beta-hydroxysteroid dehydrogenase 1 [23-292,A23S,F278E] (Homo sapiens, UniProt P28845, A23S/F278E).
T1 construct: 23-292
The experiment can be described thus: Scintillation Proximity Assay (SPA). The conditions noted are these: pH 6.5; 23 °C.

A value given as a limit tells only on which side of the number the result lay.

T1 sequence (P28845 as listed by the source A23S/F278E): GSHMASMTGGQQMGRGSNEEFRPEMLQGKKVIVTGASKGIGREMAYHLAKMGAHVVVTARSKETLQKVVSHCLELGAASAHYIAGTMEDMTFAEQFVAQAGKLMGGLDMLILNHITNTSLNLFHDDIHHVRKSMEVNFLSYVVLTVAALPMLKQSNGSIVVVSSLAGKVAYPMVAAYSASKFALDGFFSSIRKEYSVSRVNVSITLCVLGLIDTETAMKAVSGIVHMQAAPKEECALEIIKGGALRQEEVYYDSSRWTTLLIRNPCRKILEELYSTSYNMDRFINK
Description: 11beta-HSD1 microsomes isolated from HEK 293 cells over-expressing human 11beta-HSD1 were incubated with the substrate cortisone and cofactor NADPH at room temperature. The reactions were terminated with the addition of a nonspecific 11beta-HSD1 inhibitor (18beta-glycyrrhetinic acid). The product cortisol was quantified in an immuno-competition SPA wherein the [3H]-cortisol bound to anti-rabbit antibody Yitrium silicate SPA beads coated with polyclonal anti-cortisol antibody was competed by cortisol produced in the reaction, and the reaction mixture was read in a scintillation plate reader (TopCount). The amount of cortisol was determined from a cortisol standard curve.

In general, IC50 refers to the concentration needed to halve the response being measured. A high value points to lower potency. In the case of `O=C(c1cncc(CS(=O)(=O)c2c(Cl)cccc2Cl)c1)N1CCOCC1` [pyridine amide, 26], the IC50 was more than 10 µM.

These data come from BindingDB's records for doi:10.1016/j.bmcl.2008.04.069 (Bristol-Myers Squibb, 2008).
